From publication PMC9837764 (Nature Communications, 2023)
Values joined by “and” are separate entries in the source; they are usually repeats but may differ in a detail not shown here. Equal values may be shown once.

Legend:
SARS-CoV-2 gamma VoC [1] = system: SARS-CoV-2 gamma VoC; set-up: species or system K18-hACE2 mice (Mus musculus); details: mouse, in vivo, 140 mg/kg/day
SARS-CoV-2 Gamma VoC [2] = details: hamster, in vivo, 140 mg/kg
SARS-CoV-2 gamma VoC [3] = system: SARS-CoV-2 gamma VoC; set-up: species or system K18-hACE2 mice (Mus musculus); details: mouse, in vivo
IL-6 = IL-6 in supernatant of SARS-CoV-2-infected human primary monocytes; assay type: cell-based; details: infected monocytes, drugs at 10 µM, 24 h
Experimental: (§1) Human primary monocytes were obtained after 3 h of plastic adherence of peripheral blood mononuclear cells (PBMCs). The use of primary human cell was approved by Institutional Review Board from the Oswaldo Cruz Foundation under protocol 49971421.8.0000.5248 with signed informed consent in accordance with the Hemotherapy Service of Hospital Clementino Fraga from the Federal University of Rio de Janeiro. All volunteers were de-identified. PBMCs were isolated from healthy donors by density gradient centrifugation (Ficoll-Paque, GE Healthcare). PBMCs (2.0 × 10^6 cells) were plated onto 48-well plates (NalgeNunc) in RPMI-1640 without serum for 2–4 h. Nonadherent cells were removed, and the remaining monocytes were maintained in DMEM with 5% human serum (HS; Millipore) and penicillin/streptomycin. The purity of human monocytes was above 95%, as determined by flow cytometric analysis (FACScan; Becton Dickinson) using anti-CD3 (BD Biosciences, cat # 555342, 1:40), anti-CD16 (Southern Biotech, cat # 561313, 1:20) and APC mouse IgG2a isotype (BD Biosciences, cat # 550882, 1/40) and PE mouse IgG1 isotype (BD Biosciences, 555749, 1/20).

TNF-α = TNF-α in supernatant of SARS-CoV-2-infected human primary monocytes; assay type: cell-based; details: infected monocytes
Experimental: as §1

SARS-CoV-2 [4] = assay: Yield-reduction assay, SARS-CoV-2 in Calu-3 cells (titers as PFU/mL in Vero cells); details: for Inhibition of SARS-CoV-2 infectious titers (Fig1B source data, replicates): additional treatment at 24 h; for Inhibition of SARS-CoV-2 infectious titers (Fig1A source data, replicates): one treatment
SARS-CoV-2 [5] = assay: Genomic and subgenomic viral RNA in infected Calu-3 cells (RT-PCR); assay type: cell-based; details: Calu-3, 10 µM, 48 h
[6] = system: Salmonella typhimurium TA 97a; assay: Ames test, strain TA 97a
SARS-CoV-2 gamma VoC [7] = system: SARS-CoV-2 gamma VoC; set-up: species or system K18-hACE2 mice (Mus musculus); details: mouse, in vivo; remark: listed apart in the source
[8] = system: Salmonella typhimurium TA 98; assay: Ames test, strain TA 98
[9] = system: Salmonella typhimurium TA 102; assay: Ames test, strain TA 102
[10] = MB-905 and metabolites in mouse lungs after single oral treatment; assay type: in vivo, mice; details: individual animals
Experimental: Fig. 5 Pharmacokinetic and pharmacodynamics in mice. […] Lung metabolites were detected consistently in terms of peak area and duration (c). Transgenic mice expressing the hACE2 receptor to SARS-CoV-2 entry at the age of 10–12 weeks were infected with 10^5 PFU intranasally and treated orally beginning 12–18 h after infection with 140 mg/kg/day. […] (e) are presented.
Pharmacokinetics in rodent plasma was performed in CD1 mice (Mus musculus, 20–30 g) and Sprague‒Dawley rats (Rattus norvegicus, 250–300 g) of both sexes. […] After oral or intravenous administration, blood samples were collected at times of 0.25, 0.5, 1, 2, 4, 8, and 24 and 0.083, 0.25, 0.5, 1, 2, and 4 h. Parameters such as area under the curve (AUC), time taken to reach the maximum concentration (Tmax), time taken for Cmax to drop in half (T 1/2), volume of distribution, clearance, elimination constant and bioavailability (F) were evaluated. Bioavailability was calculated using the following equation: F (%) = [(intravenous dose x oral AUC)/(oral dose × intravenous AUC)] × 100. […] Animals were treated orally with MB-905 as previously described. Animals were sacrificed at different time points after treatments, and lungs were immediately removed, placed in liquid nitrogen at −80 °C and processed for further analysis. For the analysis of plasma and lung supernatant, UPLC–MS/MS equipment was used.

SARS-CoV-2 Gamma VoC [11] = system: SARS-CoV-2 Gamma VoC; set-up: species or system Syrian hamsters (Mesocricetus auratus); details: hamster, in vivo, 140 mg/kg
SARS-CoV-2 Gamma VoC [12] = system: SARS-CoV-2 Gamma VoC; set-up: species or system Syrian hamsters (Mesocricetus auratus); details: hamster, in vivo

c1coc(CNc2ncnc3[nH]cnc23)c1 [MB-905, N6-furfurylaminopurine]
Infectious titers in lungs (SARS-CoV-2 gamma VoC [1]): decreased significantly | Virus RNA levels from lung extracts (SARS-CoV-2 gamma VoC [1]): did not alter | Tolerability (body weight) (SARS-CoV-2 Gamma VoC [2]): tolerated | Fig6G lung histological score (SARS-CoV-2 gamma VoC [3]): 1 and 2 | IL-6 levels in the culture supernatant (Fig1E source data, per donor) (IL-6): 1.3 and 0.5 and 1.0 and 2.4 and 0.8 and 1.4 and 2.3 | SARS-CoV-2-induced TNF and IL-6 levels (TNF-α; 10 µM): diminished | TNF-α levels in the culture supernatant (Fig1D source data, per donor) (TNF-α; drugs at 10 µM, 24 h): 0.7 and 0.9 and 0.537 and 2.5 and 0.474 and 3.4 | EC50 (SARS-CoV-2 [4]; Severe acute respiratory syndrome coronavirus 2, Calu-3): 310 ± 50 nM | EC50 (SARS-CoV-2 [4]; Severe acute respiratory syndrome coronavirus 2, Calu-3, 24 h): 30 ± 4 nM | EC90 (SARS-CoV-2 [4]; Severe acute respiratory syndrome coronavirus 2, read-out: In vitro EC90 values, range): 2100 to 6300 nM | Inhibition of SARS-CoV-2 infectious titers (Fig1B source data, replicates) (SARS-CoV-2 [4]; Drug 0.001, Calu-3, 48 h): 16 and 20 and 22 | Inhibition of SARS-CoV-2 infectious titers (Fig1B source data, replicates) (SARS-CoV-2 [4]; Drug 0.01): 22 and 55 and 63 | Inhibition of SARS-CoV-2 infectious titers (Fig1B source data, replicates) (SARS-CoV-2 [4]; Drug 0.1): 66 and 47 and 65 | Inhibition of SARS-CoV-2 infectious titers (Fig1B source data, replicates) (SARS-CoV-2 [4]; Drug 1): 92 and 72 and 69 | Inhibition of SARS-CoV-2 infectious titers (Fig1B source data, replicates) (SARS-CoV-2 [4]; Drug 10): 98 and 97 and 96 | Antiviral activity, SARS-CoV-2 replication (SARS-CoV-2 [4]; huh-7 and calu-3 cells (Supplementary Fig. 2)): inhibited SARS-CoV-2 replication in a concentration-dependent manner | Inhibition of SARS-CoV-2 infectious titers (Fig1A source data, replicates) (SARS-CoV-2 [4]; Drug 0.001, Calu-3, MOI 0.1, 48 h): 5 and 4 and 2 | Inhibition of SARS-CoV-2 infectious titers (Fig1A source data, replicates) (SARS-CoV-2 [4]; Drug 0.01): 15 and 4 and 13 | Inhibition of SARS-CoV-2 infectious titers (Fig1A source data, replicates) (SARS-CoV-2 [4]; Drug 0.1): 22 and 39 and 30 | Inhibition of SARS-CoV-2 infectious titers (Fig1A source data, replicates) (SARS-CoV-2 [4]; Drug 1): 60 and 91 and 74 | Inhibition of SARS-CoV-2 infectious titers (Fig1A source data, replicates) (SARS-CoV-2 [4]; Drug 10): 66 and 96 and 88 | Genomic viral RNA (Fig2B source data, replicates) (SARS-CoV-2 [5]): 0.2 and 0.15 and 0.1 | Subgenomic viral RNA (Fig2B source data, replicates) (SARS-CoV-2 [5]): 0.6 and 0.5 and 0.7 | Mutagenicity TA 97a +S9 ([6]; 8 µg/mL): - | Mutagenicity TA 97a -S9 ([6]; 8 µg/mL): - | Mutagenicity TA 97a +S9 ([6]; 40 µg/mL): - | Mutagenicity TA 97a -S9 ([6]; 40 µg/mL): - | Mutagenicity TA 97a +S9 ([6]; 200 µg/mL): - | Mutagenicity TA 97a -S9 ([6]; 200 µg/mL): - | Mutagenicity TA 97a +S9 ([6]; 1,000 µg/mL): - | Mutagenicity TA 97a -S9 ([6]; 1,000 µg/mL): - | Mutagenicity TA 97a +S9 ([6]; 5,000 µg/mL): - | Mutagenicity TA 97a -S9 ([6]; 5,000 µg/mL): - | Ames test ([6]; all strains of Supplementary Table 3): negative | SARS-CoV-2-induced inflammation in the BAL fluid (SARS-CoV-2 gamma VoC [7]): attenuated | Mutagenicity TA 98 +S9 ([8]; 8 µg/mL): - | Mutagenicity TA 98 -S9 ([8]; 8 µg/mL): - | Mutagenicity TA 98 +S9 ([8]; 40 µg/mL): - | Mutagenicity TA 98 -S9 ([8]; 40 µg/mL): - | Mutagenicity TA 98 +S9 ([8]; 200 µg/mL): - | Mutagenicity TA 98 -S9 ([8]; 200 µg/mL): - | Mutagenicity TA 98 +S9 ([8]; 1,000 µg/mL): - | Mutagenicity TA 98 -S9 ([8]; 1,000 µg/mL): - | Mutagenicity TA 98 +S9 ([8]; 5,000 µg/mL): - | Mutagenicity TA 98 -S9 ([8]; 5,000 µg/mL): - | Mutagenicity TA 102 +S9 ([9]; 8 µg/mL): - | Mutagenicity TA 102 -S9 ([9]; 8 µg/mL): - | Mutagenicity TA 102 +S9 ([9]; 40 µg/mL): - | Mutagenicity TA 102 -S9 ([9]; 40 µg/mL): - | Mutagenicity TA 102 +S9 ([9]; 200 µg/mL): - | Mutagenicity TA 102 -S9 ([9]; 200 µg/mL): - | Mutagenicity TA 102 +S9 ([9]; 1,000 µg/mL): - | Mutagenicity TA 102 -S9 ([9]; 1,000 µg/mL): - | Mutagenicity TA 102 +S9 ([9]; 5,000 µg/mL): - | Mutagenicity TA 102 -S9 ([9]; 5,000 µg/mL): - | MB-905 level (Fig5B) ([10]; 140 mg/kg, 0.25 h): 1864 and 2462 and 2409 | MB-905 level (Fig5B) ([10]; 140 mg/kg, 1 h): 2448 and 1951 | MB-905 level (Fig5B) ([10]; 140 mg/kg, 3 h): 1209 and 771 and 2655 | MB-905 level (Fig5B) ([10]; 140 mg/kg, 8 h): 1105 and 110 and 400 | MB-905 level (Fig5B) ([10]; 140 mg/kg, 12 h): 0 | MB-905 level (Fig5B) ([10]; 500 mg/kg, 0.25 h): 5246 and 5640 and 6065 | MB-905 level (Fig5B) ([10]; 500 mg/kg, 1 h): 4146 and 4252 and 4427 | MB-905 level (Fig5B) ([10]; 500 mg/kg, 3 h): 3576 and 2579 and 2846 | MB-905 level (Fig5B) ([10]; 500 mg/kg, 8 h): 3077 and 895 and 2729 | MB-905 level (Fig5B) ([10]; 500 mg/kg, 12 h): 575 and 53 and 0 | Lung injury (SARS-CoV-2 Gamma VoC [11]): protected this organ | Viral RNA levels (SARS-CoV-2 Gamma VoC [12]): did not affect viral RNA levels | Infectious virus titers in the lungs (SARS-CoV-2 Gamma VoC [12]; 140 mg/kg): reduced infectious virus titers in the lungs
